Measured values taken from US5266571A, “Treatment of hemorrhoids with 5-HT2 antagonists” (priority 1992, dated 1993).
Structures can show the parent of a compound that is named as a salt. Where two headings read alike, the source gives them in different places.

What was measured:
5-HT2 = 5-HT2 (Homo sapiens, UniProt P28223); test: Receptor Blocking Profile: inhibition of labeled 5-HT binding, 5-HT2
Method: (§1) The receptor blocking profile is determined as follows: Labeled 5-HT is mixed with a purified preparation containing the receptor. The amount of labeled material that attaches itself to the receptor and cannot be washed off is calculated. In a series of other similar tubes, the same quantity of labeled 5-HT is mixed with increasing concentrations of the antagonist which will antagonize the binding of 5-HT to the receptor. Decreasing quantities of the labeled material will bind to the receptor. The concentration of the antagonist that inhibits the binding by 50% is then calculated.

Alpha-receptor = test: Receptor Blocking Profile, Alpha-receptor; type: binding; settings: read-out: Receptor Blocking Profile IC-50, Alpha-receptor
Method: (§2) The IC- 50 is the concentration that inhibits agonist binding to the
(§3) receptor by 50%. The better the blocker a compound is, the smaller is the
(§4) concentration thereof needed to block the receptor, i.e., the smaller the
(§5) IC-50, the better receptor blocker or antagonist the compound is.
as §1

human colon veins = test: Activity against 5-HT on the human colon in vitro (contraction of human colonic vein rings); settings: for blocking contractile effects of 5-HT on human colon rings, correlation with receptor blocking potencies: human colon rings in vitro, compared with the receptors tested; for IC50: read-out: IC-50, activity against 5-HT on the human colon in vitro
Method: Human colonic vein rings were isolated from discarded human colon tissue following surgery (colostomy). The rings were prepared immediately after surgery and were suspended in buffered physiological saline. The contractions produced by the rings in response to the addition of 5-HT in vitro were measured. The effects of three selected 5-HT2 antagonist compounds on antagonizing 5-HT contractile effects were also determined.
This activity is determined as follows: Rings of human colon veins are prepared and hung in a tissue bath. The contractions of the rings are monitored. Adding 5-HT causes the rings to contract. Pre-addition of increasing concentrations of the antagonist result in lesser contractions. The amount of antagonist causing a 50% inhibition of the contractions is then calculated.

Dopamine-2 = Dopamine-2 (Homo sapiens, UniProt P14416); test: Receptor Blocking Profile, Dopamine-2; type: binding
5-HT1 = test: Receptor Blocking Profile, 5-HT1; type: binding; settings: read-out: Receptor Blocking Profile IC-50, 5-HT1
Method: as §2, §3, §4, §5, §1

5-HT2 receptor [1] = settings: background statement; cited from earlier work
5-HT2 receptor [2] = settings: background statement; cited from earlier work; remark: listed apart in the source
[3] = human colon vein rings, antagonist pre-added, 5-HT-induced contraction
[4] = read-out: Receptor Blocking Profile IC-50, Dopamine-2

Chain of Dopamine-2 (P14416 whole entry): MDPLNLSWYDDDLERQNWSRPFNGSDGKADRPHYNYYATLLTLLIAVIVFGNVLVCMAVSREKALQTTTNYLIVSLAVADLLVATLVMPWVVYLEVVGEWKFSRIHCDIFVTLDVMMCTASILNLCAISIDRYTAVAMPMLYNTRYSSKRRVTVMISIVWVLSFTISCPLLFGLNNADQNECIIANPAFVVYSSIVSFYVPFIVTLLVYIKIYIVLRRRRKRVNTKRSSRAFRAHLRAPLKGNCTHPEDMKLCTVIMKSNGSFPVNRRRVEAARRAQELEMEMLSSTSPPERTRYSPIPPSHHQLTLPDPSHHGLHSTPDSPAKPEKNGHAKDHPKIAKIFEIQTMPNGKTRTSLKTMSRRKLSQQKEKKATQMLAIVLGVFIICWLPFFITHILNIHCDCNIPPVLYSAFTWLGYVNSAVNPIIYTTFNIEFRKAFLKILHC
Chain of 5-HT2 (P28223 whole entry, species assumed): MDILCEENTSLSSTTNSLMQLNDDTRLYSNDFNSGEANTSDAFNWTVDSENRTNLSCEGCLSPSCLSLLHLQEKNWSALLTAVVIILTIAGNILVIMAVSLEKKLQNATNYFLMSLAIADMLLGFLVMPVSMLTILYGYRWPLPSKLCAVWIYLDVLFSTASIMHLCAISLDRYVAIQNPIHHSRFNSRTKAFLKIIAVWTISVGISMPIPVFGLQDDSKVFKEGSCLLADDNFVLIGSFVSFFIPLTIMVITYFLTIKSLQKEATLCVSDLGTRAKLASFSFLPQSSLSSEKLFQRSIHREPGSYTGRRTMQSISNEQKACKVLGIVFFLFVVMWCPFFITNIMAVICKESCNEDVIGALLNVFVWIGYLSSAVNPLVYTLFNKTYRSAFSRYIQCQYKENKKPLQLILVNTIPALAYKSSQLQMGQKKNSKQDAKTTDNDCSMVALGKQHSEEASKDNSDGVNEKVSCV

Structure (SMILES)	IC50 (5-HT2) [nM]	IC50 (Alpha-receptor) [nM]	blocking contractile effects of 5-HT on human colon rings, correlation with receptor blocking potencies (human colon veins)	IC50 (human colon veins; [3]) [nM]	IC50 (Dopamine-2; [4]) [nM]	IC50 (5-HT1) [nM]	IC50 (Dopamine-2) [nM]	IC50 (5-HT2; read-out: Receptor Blocking Profile IC-50, 5-HT2, displacement of labeled 5-HT) [nM]	IC50 (human colon veins; Homo sapiens) [nM]	antagonism of binding of 5-HT to 5-HT2 receptor (5-HT2 receptor [1])	inhibition of modulation of phosphatidylinositol turnover by 5-HT2 receptor (5-HT2 receptor [2])
CN1CCCCC1CCc1ccccc1NC(=O)C=Cc1ccccc1.Cl (centres unmarked) [Compound I, 2'[2-(1-methyl-2-piperidyl)ethyl] cinnamanilide hydrochloride]	3.4	> 1000	correlated best with their 5-HT2 blocking potencies	2	> 1000	22000					
CCc1nn(CCCN2CCN(c3cccc(Cl)c3)CC2)c(=O)n1CCOc1ccccc1 [Compound II, 2-[3-[4-(3-chlorophenyl)-1-piperazinyl]propyl-5-ethyl-2,4-dihydro-4-(2-phenoxyethyl)-3H-1,2,4-triazol-3-one hydrochloride]		160	correlated best with their 5-HT2 blocking potencies	10		> 1000	> 1000				
O=C1CC2(CCCC2)CC(=O)N1CCCCN1CCN(c2nsc3ccccc23)CC1 [Compound III, 8-[4-[4-(1,2-benzisotriazol-3-yl)-1-piperazinyl]butyl]-8-azaspiro[4,5]decane-7,9-dione hydrochloride]		47	correlated best with their 5-HT2 blocking potencies		8.4	12.5		1.7	1		
O=C(c1ccc(F)cc1)C1CCN(CCn2c(=O)[nH]c3ccccc3c2=O)CC1 [ketanserin]										antagonized	inhibited
CN1C[C@@H](NS(=O)(=O)N(C)C)C[C@@H]2c3cccc4c3c(cn4C)C[C@H]21 [mesulergine]										antagonized	
